Values quoted from earlier work as cited in PMC4368888, “Preclinical to Clinical Translation of CNS Transporter Occupancy of TD-9855, a Novel Norepinephrine and Serotonin Reuptake Inhibitor” (International Journal of Neuropsychopharmacology, 2015).

What was measured:
[1] = test system: SERT and NET; details: in vitro; ref Wu et al., 2008; Tsuruda et al., 2010; cited from earlier work
[2] = biological target: SERT (Homo sapiens, UniProt P31645); details: approved dose (100mg) for fibromyalgia; ref Nogami et al., 2013; cited from earlier work
SERT, sequence (P31645 whole entry): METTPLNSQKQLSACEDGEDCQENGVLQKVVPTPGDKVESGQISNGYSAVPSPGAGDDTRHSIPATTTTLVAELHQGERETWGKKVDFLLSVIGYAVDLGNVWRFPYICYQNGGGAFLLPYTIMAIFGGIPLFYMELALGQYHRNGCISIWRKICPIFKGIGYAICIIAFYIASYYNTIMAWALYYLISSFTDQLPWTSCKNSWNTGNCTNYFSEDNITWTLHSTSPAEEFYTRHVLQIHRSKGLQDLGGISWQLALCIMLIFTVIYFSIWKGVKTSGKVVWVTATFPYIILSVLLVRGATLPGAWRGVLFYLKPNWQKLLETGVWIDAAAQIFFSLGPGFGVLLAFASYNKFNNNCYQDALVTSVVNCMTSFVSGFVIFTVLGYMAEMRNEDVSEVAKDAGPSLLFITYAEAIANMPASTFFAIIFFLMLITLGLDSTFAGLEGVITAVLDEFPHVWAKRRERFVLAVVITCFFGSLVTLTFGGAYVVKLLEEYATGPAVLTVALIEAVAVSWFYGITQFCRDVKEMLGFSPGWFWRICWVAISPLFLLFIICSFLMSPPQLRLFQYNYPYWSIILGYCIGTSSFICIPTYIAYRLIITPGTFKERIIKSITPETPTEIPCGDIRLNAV

Structure (SMILES): CNCC[C@@H](Oc1ccccc1C)c1ccccc1 [atomoxetine]
- functional selectivity for NE [1]: ≥ 20 fold

Structure (SMILES): CCN(CC)C(=O)C1(c2ccccc2)CC1CN (centres unmarked) [milnacipran]
- occupancy of SERT [2]: ~ 40%
